Laboratory results reported in patent publication US9833497B2, “Human originated EGF domain proteins and use of the same” (CHENGDU SOURCEBIO LIMITED-LIABILITY COMPANY, priority 2013, dated 2017).

Legend:
Assay type in all cases: cell-based
[1] = system: E. coli BL21; experiment: MIC against Gram-negative bacteria: E. coli BL21; conditions: for MIC E. coli BL21 / MIC (μg/mL) E. coli BL21: 5×10^5 CFU/mL; for MIC E. coli BL21: two-fold serial dilution
How it was run: (§1)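 Two-fold serial dilutions of each purified human EGF domain protein, three replicate wells per level, were combined with bacteria at a final 5×10^5 CFU/mL in LB. Cultures were shaken at 175 rpm, 37° C. The MIC was taken as the minimum concentration preventing growth.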

[2] = system: Proteus vulgaris; experiment: MIC against Gram-negative bacteria: Proteus vulgaris; conditions: for MIC P. vulgaris / MIC (μg/mL) P. vulgaris: 5×10^5 CFU/mL; for MIC P. vulgaris: two-fold serial dilution
How it was run: as §1

[3] = system: Enterobacter cloacae; experiment: MIC against Gram-negative bacteria: Enterobacter cloacae; conditions: for MIC E. cloacae / MIC (μg/mL) E. cloacae: 5×10^5 CFU/mL; for MIC E. cloacae: two-fold serial dilution
How it was run: as §1

[4] = system: Pseudomonas aeruginosa; experiment: MIC against Gram-negative bacteria: Pseudomonas aeruginosa; conditions: for MIC P. aeruginosa / MIC (μg/mL) P. aeruginosa: 5×10^5 CFU/mL; for MIC P. aeruginosa: two-fold serial dilution
How it was run: as §1

[5] = system: Serratia marcescens; experiment: MIC against Gram-negative bacteria: Serratia marcescens; conditions: for MIC S. marcescens / MIC (μg/mL) S. marcescens: 5×10^5 CFU/mL; for MIC S. marcescens: two-fold serial dilution
How it was run: as §1

[6] = system: Citrobacter diversus; experiment: MIC against Gram-negative bacteria: Citrobacter diversus; conditions: for MIC C. diversus / MIC (μg/mL) C. diversus: 5×10^5 CFU/mL; for MIC C. diversus: two-fold serial dilution
How it was run: as §1

[7] = system: Aeromonas hydrophila; experiment: MIC against Gram-negative bacteria: Aeromonas hydrophila; conditions: for MIC A. hydrophila / MIC (μg/mL) A. hydrophila: 5×10^5 CFU/mL; for MIC A. hydrophila: two-fold serial dilution
How it was run: as §1

[8] = system: Klebsiella pneumonia; experiment: MIC against Gram-negative bacteria: Klebsiella pneumonia; conditions: for MIC K. pneumonia / MIC (μg/mL) K. pneumonia: 5×10^5 CFU/mL; for MIC K. pneumonia: two-fold serial dilution
How it was run: as §1

[9] = system: E. coli DH5α; experiment: Antibacterial activity: MIC and growth curve against E. coli DH5α in 96-well plate; conditions: minimal inhibitory concentration against E. coli DH5α; 96-well plate, 5×10^5 CFU/mL, 37° C., judged after 8 h
How it was run: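 Log-phase bacteria (OD600 ~0.5) resuspended in LB at 5×10^5 CFU/mL, exposed to recombinant protein at 50, 25, 12.5 μg/mL final in triplicate, 37 °C shaking at 175 rpm. OD600 read every 30 min; MIC is lowest concentration showing no growth.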

[10] = system: Moraxella catarrhalis; experiment: MIC against Gram-negative bacteria: Moraxella catarrhalis; conditions: for MIC M. catarrhalis / MIC (μg/mL) M. catarrhalis: 5×10^5 CFU/mL; for MIC M. catarrhalis: two-fold serial dilution
How it was run: as §1

[11] = system: Proteus mirabilis; experiment: MIC against Gram-negative bacteria: Proteus mirabilis; conditions: for MIC P. mirabilis / MIC (μg/mL) P. mirabilis: 5×10^5 CFU/mL; for MIC P. mirabilis: two-fold serial dilution
How it was run: as §1

[12] = E. coli BL21, 10 h cultivation at 37° C.
[13] = P. vulgaris, 10 h cultivation at 37° C.
[14] = E. cloacae, 10 h cultivation at 37° C.
[15] = P. aeruginosa, 10 h cultivation at 37° C.
[16] = S. marcescens, 10 h cultivation at 37° C.
[17] = C. diversus, 10 h cultivation at 37° C.
[18] = A. hydrophila, 10 h cultivation at 37° C.
[19] = K. pneumonia, 10 h cultivation at 37° C.
[20] = M. catarrhalis, 10 h cultivation at 37° C.
[21] = P. mirabilis, 10 h cultivation at 37° C.
[22] = E. coli BL21, 96-well plate, 37° C., 10 h
[23] = Proteus vulgaris, 96-well plate, 37° C., 10 h
[24] = Enterobacter cloacae, 96-well plate, 37° C., 10 h
[25] = Pseudomonas aeruginosa, 96-well plate, 37° C., 10 h
[26] = Serratia marcescens, 96-well plate, 37° C., 10 h
[27] = Citrobacter diversus, 96-well plate, 37° C., 10 h
[28] = Aeromonas hydrophila, 96-well plate, 37° C., 10 h
[29] = Klebsiella pneumonia, 96-well plate, 37° C., 10 h
[30] = Moraxella catarrhalis, 96-well plate, 37° C., 10 h
[31] = Proteus mirabilis, 96-well plate, 37° C., 10 h

PRT1142 (DVNKCKISPCLDEENCVYRTDGYNCLCAPGYTGINCE; listed as Homo sapiens)
MIC E. coli BL21 ([1]; 10 h cultivation at 37° C.): 50 µg/mL | MIC P. vulgaris ([2]; 10 h cultivation at 37° C.): 25 µg/mL | MIC E. cloacae ([3]; 10 h cultivation at 37° C.): 25 µg/mL | MIC P. aeruginosa ([4]; 10 h cultivation at 37° C.): 25 µg/mL | MIC S. marcescens ([5]; 10 h cultivation at 37° C.): 50 µg/mL | MIC C. diversus ([6]; 10 h cultivation at 37° C.): 50 µg/mL | MIC A. hydrophila ([7]; 10 h cultivation at 37° C.): 25 µg/mL | MIC K. pneumonia ([8]; 10 h cultivation at 37° C.): 12.5 µg/mL | MIC [9]: 25 µg/mL | MIC M. catarrhalis ([10]; 10 h cultivation at 37° C.): 25 µg/mL | MIC P. mirabilis ([11]; 10 h cultivation at 37° C.): 12.5 µg/mL

PRT212 (DIDECESGAHQCSEAQTCVNFHGGYRCV; listed as Homo sapiens)
MIC (μg/mL) E. coli BL21 [1, 12]: 50 µg/mL | MIC (μg/mL) P. vulgaris [2, 13]: 12.5 µg/mL | MIC (μg/mL) E. cloacae [3, 14]: 12.5 µg/mL | MIC (μg/mL) P. aeruginosa [4, 15]: 12.5 µg/mL | MIC (μg/mL) S. marcescens [5, 16]: 12.5 µg/mL | MIC (μg/mL) C. diversus [6, 17]: 12.5 µg/mL | MIC (μg/mL) A. hydrophila [7, 18]: 25 µg/mL | MIC (μg/mL) K. pneumonia [8, 19]: 50 µg/mL | MIC [9]: 12.5 µg/mL | MIC (μg/mL) M. catarrhalis [10, 20]: 25 µg/mL | MIC (μg/mL) P. mirabilis [11, 21]: 12.5 µg/mL

PRT995 (ETNECASAPCLNHADCHDLLNGFQCICLPGFSGTRCE; listed as Homo sapiens)
MIC [1, 12]: 50 µg/mL | MIC [2, 13]: 50 µg/mL | MIC [3, 14]: 12.5 µg/mL | MIC [4, 15]: 12.5 µg/mL | MIC [5, 16]: 12.5 µg/mL | MIC [6, 17]: 25 µg/mL | MIC [7, 18]: 50 µg/mL | MIC [8, 19]: 50 µg/mL | MIC [9]: 12.5 µg/mL | MIC [10, 20]: 12.5 µg/mL | MIC [11, 21]: 25 µg/mL

PRT1143 (NLDECLSEPCLHDGVCIDGINHYTCDCKSGFFGTHCE; listed as Homo sapiens)
MIC E. coli BL21 ([1]; 10 h cultivation at 37° C.): 25 µg/mL | MIC P. vulgaris ([2]; 10 h cultivation at 37° C.): 50 µg/mL | MIC E. cloacae ([3]; 10 h cultivation at 37° C.): 12.5 µg/mL | MIC P. aeruginosa ([4]; 10 h cultivation at 37° C.): 50 µg/mL | MIC S. marcescens ([5]; 10 h cultivation at 37° C.): 12.5 µg/mL | MIC C. diversus ([6]; 10 h cultivation at 37° C.): 12.5 µg/mL | MIC A. hydrophila ([7]; 10 h cultivation at 37° C.): 50 µg/mL | MIC K. pneumonia ([8]; 10 h cultivation at 37° C.): 25 µg/mL | MIC [9]: 12.5 µg/mL | MIC M. catarrhalis ([10]; 10 h cultivation at 37° C.): 50 µg/mL | MIC P. mirabilis ([11]; 10 h cultivation at 37° C.): 12.5 µg/mL

PRT1495 (KANCSTTCFNGGTCFYPGKCICPPGLEGE; listed as Homo sapiens)
MIC (μg/mL) E. coli BL21 [1, 22]: 12.5 µg/mL | MIC (μg/mL) P. vulgaris [2, 23]: 25 µg/mL | MIC (μg/mL) E. cloacae [3, 24]: 12.5 µg/mL | MIC (μg/mL) P. aeruginosa [4, 25]: 25 µg/mL | MIC (μg/mL) S. marcescens [5, 26]: 25 µg/mL | MIC (μg/mL) C. diversus [6, 27]: 50 µg/mL | MIC (μg/mL) A. hydrophila [7, 28]: 12.5 µg/mL | MIC (μg/mL) K. pneumonia [8, 29]: 25 µg/mL | MIC [9]: 25 µg/mL | MIC (μg/mL) M. catarrhalis [10, 30]: 50 µg/mL | MIC (μg/mL) P. mirabilis [11, 31]: 50 µg/mL

PRT138 (PCHNNATCEDSVDNYTCHCWPGYTGAQCE; listed as Homo sapiens)
MIC (μg/mL) E. coli BL21 [1, 22]: 50 µg/mL | MIC (μg/mL) P. vulgaris [2, 23]: 12.5 µg/mL | MIC (μg/mL) E. cloacae [3, 24]: 50 µg/mL | MIC (μg/mL) P. aeruginosa [4, 25]: 12.5 µg/mL | MIC (μg/mL) S. marcescens [5, 26]: 25 µg/mL | MIC (μg/mL) C. diversus [6, 27]: 12.5 µg/mL | MIC (μg/mL) A. hydrophila [7, 28]: 25 µg/mL | MIC (μg/mL) K. pneumonia [8, 29]: 25 µg/mL | MIC [9]: 12.5 µg/mL | MIC (μg/mL) M. catarrhalis [10, 30]: 100 µg/mL | MIC (μg/mL) P. mirabilis [11, 31]: 12.5 µg/mL

PRT1125 (LCDQCVTSPGCLHGLCGEPGQCICTDGWDGELCD; listed as Homo sapiens)
MIC E. coli BL21 ([1]; 10 h cultivation at 37° C.): 12.5 µg/mL | MIC P. vulgaris ([2]; 10 h cultivation at 37° C.): 12.5 µg/mL | MIC E. cloacae ([3]; 10 h cultivation at 37° C.): 12.5 µg/mL | MIC P. aeruginosa ([4]; 10 h cultivation at 37° C.): 12.5 µg/mL | MIC S. marcescens ([5]; 10 h cultivation at 37° C.): 25 µg/mL | MIC C. diversus ([6]; 10 h cultivation at 37° C.): 12.5 µg/mL | MIC A. hydrophila ([7]; 10 h cultivation at 37° C.): 12.5 µg/mL | MIC K. pneumonia ([8]; 10 h cultivation at 37° C.): 12.5 µg/mL | MIC [9]: 25 µg/mL | MIC M. catarrhalis ([10]; 10 h cultivation at 37° C.): 12.5 µg/mL | MIC P. mirabilis ([11]; 10 h cultivation at 37° C.): 12.5 µg/mL
